Earlier results on one compound are cited in patent US20260226377A1, “BIODEGRADABLE MICROCAPSULES CONTAINING LOW LOG P FRA-GRANCE” (priority 2023, published 2026).

For this data set the following is noted: octanol/water; source of values not stated (b29 refers to reported values, Pomona92 database).

`O=Cc1ccccc1` [benzaldehyde]: the logP value is recorded as 1.70.
